Measured values reported in patent US20250114369A1, “COMPOUNDS AND METHODS FOR TREATMENT OF VIRAL INFECTIONS” (Gilead Sciences, Inc., priority 2023, published 2025).
Values after ≈ are worked out from the molar mass of the structure shown.

Columns and labels:
[1] = test system: Respiratory syncytial virus recombinant with luciferase (RSV-Luc5); assay: microbe, parasite or virus in culture; type: cell-based; settings: human respiratory syncytial virus, NHBE, 72 h, read-out: RSV NHBE EC50 (nM)
[2] = test system: SARS Coronavirus 2 recombinant with NanoLuc (SARS-CoV2-NLuc); assay: organism not typed; type: cell-based; settings: 48 h
in vitro [3] = type: cell-based; settings: human
Description: Cytotoxicity of the compounds was determined in uninfected cells using the cell viability reagent in a similar fashion as described before for other cell types (Cihlar et al., Antimicrob Agents Chemother. 2008, 52(2):655-65). HEp-2 (1.5×10^3 cells/well) and MT-4 (2×10^3 cells/well) cells were plated in 384-well plates and incubated with the appropriate medium containing 3-fold serially diluted compound ranging from 15 nM to 100,000 nM. Cells were cultured for 4-5 days at 37° C. Following the incubation, the cells were allowed to equilibrate to 25° C., and cell viability was determined by adding Cell-Titer Glo viability reagent. The mixture was incubated for 10 min, and the luminescence signal was quantified using an Envision plate reader. Untreated cell and cells treated at 2 μM puromycin (Sigma, St. Louis, MO) serve as […] cell viability control, respectively. The percent of cell viability was calculated for each tested compound concentration relative to the 0% and 100% controls and the CC50 value was determined by non-linear regression as a compound concentration reducing the cell viability by […].

in vitro [4] = type: in vitro ADME; settings: human, s9, pH 7.4
Description: Duplicate aliquots of test compound or positive control substrate (GS-7340) were added to PMSF-free Intestinal S9 fractions diluted with 100 mM phosphate buffered saline, pH 7.4, to obtain a protein concentration of 1.0 mg/mL. The S9 metabolic reactions were initiated by the addition of the substrates to the S9 reaction mixture to a final concentration of 2 μM. At 0, 10, 20, 30, 60 and 120 min, 25 μL aliquots of the reaction mixture were transferred to plates containing 225 μl of IS/Q solution. After quenching, the plates were centrifuged at 3000×g for 30 minutes, and 150 μL aliquots of each supernatant were diluted with 150 μL water. Aliquots (10 μL) of the diluted supernatant were analyzed on a Thermo Q-Exactive mass spectrometer as described below. Quantification of test compounds and controls was performed by analyte/internal standard peak area ratio (PAR) values measured on a Thermo Q-Exactive mass spectrometer coupled to a Dionex UltiMate 3000 HPLC with a Leap Technologies HTC PAL autosampler. The column used was a Thermo Hypersil GOLD (1.9 μm particle size, 2.1×50 mm). Mobile phase A consisted of […] formic acid in water. Mobile phase B consisted of 0.1% (v/v) formic acid in acetonitrile. Elution of analytes was achieved by a series of linear gradients of acetonitrile in water containing 0.1% (v/v) formic acid. The mass spectrometer was calibrated on a weekly basis and mass tolerance of 5 ppm was used.

[5] = type: in vitro ADME; settings: 2 μM
Description: Duplicate aliquots of plasma were warmed to 37° C. and the metabolic reactions initiated by the addition of test compound (6 μL of 0.1 mM DMSO stock) or plasma stability standard (GS-7340) to obtain a final substrate concentration of 2 μM. At 0.05, 0.5, 1, 2, 3 and 4 hr, 25 μL aliquots of the reaction mixture were transferred to plates containing 225 μl of IS/Q quenching solution. After quenching, the plates were centrifuged at 3000×g for 30 minutes, and 150 μL supernatant was diluted with 150 μL water. Aliquots (10 μL) of the diluted supernatant were analyzed on a Thermo Q-Exactive mass spectrometer as described below. Quantification of test compounds and controls was performed by analyte/internal standard peak area ratio (PAR) values measured on a Thermo Q-Exactive mass spectrometer coupled to a Dionex UltiMate 3000 HPLC with a Leap Technologies HTC PAL autosampler. The column used was a Thermo Hypersil GOLD (1.9 μm particle size, 2.1×50 mm). Mobile phase A consisted of […] formic acid in water. Mobile phase B consisted of 0.1% (v/v) formic acid in acetonitrile. Elution of analytes was achieved by a series of linear gradients of acetonitrile in water containing 0.1% (v/v) formic acid. The mass spectrometer was calibrated on a weekly basis and mass tolerance of 5 ppm was used.

[6] = test system: Caco-2 cells (clone C2BBel); assay: CACO-2 permeability; type: in vitro ADME; settings: donor pH 6.5, receiver pH 7.4; for DM Caco2 A to B: forward (A to B); for DM Caco2 B to A: reverse (B to A)
Description: Pre-plated Caco-2 cells (clone C2BBel) were obtained from Sigma-Aldrich, Inc. (Atlanta, GA). Cell monolayers were grown to confluence on collagen-coated, microporous, polycarbonate membranes in 24-well transwell plates for 21 days. The permeability assay buffer in donor wells was Hanks' balanced salt solution (HBSS) containing 10 mM HEPES and 15 mM glucose at a pH of 6.5 containing 200 μM BNPP. The receiver wells used HBSS buffer containing 10 mM HEPES and 15 mM glucose at a pH of 7.4 and supplemented with 1% BSA. After an initial equilibration with transport buffer, TEER values were read to test membrane integrity. The experiment was started by the addition of buffers containing test compounds, 200 μl and 1000 μl in the apical and basolateral chamber, respectively. At 0- and 2-hour post dose, 10 μL was sampled from donor compartment and was immediately diluted in 190 μL of 20% methanol. At 1 and 2 hours post dose, 100 μl of solution was taken from the receiver compartments and was immediately diluted in 100 μl of 20% methanol. Removed buffer was replaced with fresh buffer and a correction was applied to all calculations for the removed material. Each compound was tested in 2 separate replicate wells for each condition. All samples were then extracted with 400 μl 100% acetonitrile with internal standard to precipitate protein. Cells were dosed on the apical or basolateral side to determine forward (A to B) and reverse (B to A) permeability. To test for non-specific binding and compound instability, the total amount of drug was quantitated at the end of the experiment and compared to the material present in the original dosing solution as a percent recovery. Formation of the parent compound (GS-441524; Reference Compound A) was monitored in assay wells dosed with the prodrug. Samples were analyzed by LC-MS/MS.

physchem = type: physicochemical; settings: pH 7, aqueous buffer, thermodynamic from solid
Description: The aqueous solubility of compounds over a time of 24 hours was assessed. Solubility was determined at ambient temperature in a 50 mM phosphate buffered pH7 solution with 150 mM NaCl (to achieve isotonicity). Solids were added to the buffered solution in 1.5-mL Eppendorf tubes, vortexed for 1 minute, then agitated for 24 hours in an Eppendorf ThermoMixer C. To determine concentration in solution, the suspensions were centrifuged for 15 min at 15,000 rpm. Supernatants were diluted to a volume of 1 mL with 30:70 v/v acetonitrile:water. All diluted supernatants were analyzed by UPLC using a Waters Acquity UPLC with a PDA UV detector.

in vitro [7] = type: in vitro ADME; settings: human, s9, pH 7.4; remark: listed apart in the source
Description: Duplicate aliquots of test compound or positive control substrate (GS-7340) were added to S9 stock diluted with 100 mM potassium phosphate buffer, pH 7.4, to obtain a protein concentration of 2.4 mg/mL. The S9 metabolic reactions were initiated by the addition of the substrates to the S9 reaction mixture to a final concentration of 2 μM. At 2, 12, 25, 45, 65 and 90 min, 25 μL aliquots of the reaction mixture were transferred to plates containing 225 μl of IS/Q solution. After quenching, the plates were centrifuged at 3000×g for 30 minutes, and 150 μL aliquots of each supernatant were diluted with 150 μL water. Aliquots (10 μL) of the diluted supernatant were analyzed on a Thermo Q-Exactive mass spectrometer as described below. Quantification of test compounds and controls was performed by analyte/internal standard peak area ratio (PAR) values measured on a Thermo Q-Exactive mass spectrometer coupled to a Dionex UltiMate 3000 HPLC with a Leap Technologies HTC PAL autosampler. The column used was a Thermo Hypersil GOLD (1.9 μm particle size, 2.1×50 mm). Mobile phase A consisted of […] formic acid in water. Mobile phase B consisted of 0.1% (v/v) formic acid in acetonitrile. Elution of analytes was achieved by a series of linear gradients of acetonitrile in water containing 0.1% (v/v) formic acid. The mass spectrometer was calibrated on a weekly basis and mass tolerance of 5 ppm was used.
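For CC50 in this document: uninfected MT-4 cells over 4-5 days by CellTiter-Glo.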

Row | Compound | EC50 [1] [nM] | EC50 [2] [µM] | CC50 (in vitro [3]) [µM] | half-life at 2 μM (in vitro [4]) [min] | STA Human Plasma 37 [5] | DM Caco2 A to B [6] | DM Caco2 B to A [6] | solubility thermodynamic at 24 h (physchem) [µg/mL] | half-life at 2 μM (in vitro [7]) [min]
1 | COC(=O)c1cn(C(=O)OC[C@H]2O[C@@](C#N)(c3ccc4c(N)ncnn34)[C@H](O)[C@@H]2O)c2ccccc12 [Compound 1, O1-[[(2R,3S,4R,5R)-5-(4-aminopyrrolo[2,1-f][1,2,4]triazin-7-yl)-5-cyano-3,4-dihydroxy-tetrahydrofuran-2-yl]methyl]O3-methyl indole-1,3-dicarboxylate] | 5590 | 4.73 | > 50 | 123 | 645.34 | 0.69 | 12.34 | 100 (≈ 203 µM) | 
2 | N#C[C@@]1(c2ccc3c(N)ncnn23)O[C@H](COC(=O)n2cc(C(=O)OC3CCOCC3)c3ccccc32)[C@@H](O)[C@H]1O [Compound 2, O1-[[(2R,3S,4R,5R)-5-(4-aminopyrrolo[2,1-f][1,2,4]triazin-7-yl)-5-cyano-3,4-dihydroxy-tetrahydrofuran-2-yl]methyl]O3-tetrahydropyran-4-yl indole-1,3-dicarboxylate] | 14100 | 5.52 | > 50 | 476 | 1055.4 | 0.33 | 13.49 | 140 (≈ 249 µM) | 
3 | CC(C)NC(=O)OC[C@H]1O[C@@](C#N)(c2ccc3c(N)ncnn23)[C@H](O)[C@@H]1O [Compound 8, [(2R,3S,4R,5R)-5-(4-aminopyrrolo[2,1-f][1,2,4]triazin-7-yl)-5-cyano-3,4-dihydroxy-tetrahydrofuran-2-yl]methyl N-isopropylcarbamate] | > 50000 | 31.9 | > 50 | 784 |  | 0.11 | 0.79 | > 13000 | ≥ 592
4 | CCOC(=O)c1cccn1C(=O)OC[C@H]1O[C@@](C#N)(c2ccc3c(N)ncnn23)[C@H](O)[C@@H]1O [Compound 10, O1-[[(2R,3S,4R,5R)-5-(4-aminopyrrolo[2,1-f][1,2,4]triazin-7-yl)-5-cyano-3,4-dihydroxy-tetrahydrofuran-2-yl]methyl]O2-ethyl pyrrole-1,2-dicarboxylate] | 1520 | 5.16 | > 50 | 1.71 | 68.966 | 0.22 | 5.54 |  | 4.6
5 | N#C[C@@]1(c2ccc3c(N)ncnn23)O[C@H](COC(=O)N2CCCCC2)[C@@H](O)[C@H]1O [Compound 13, [(2R,3S,4R,5R)-5-(4-aminopyrrolo[2,1-f][1,2,4]triazin-7-yl)-5-cyano-3,4-dihydroxy-tetrahydrofuran-2-yl]methyl piperidine-1-carboxylate] | > 50000 | > 50 | > 50 | ≥ 789 | 1584 | 0.3 | 6.39 | 4480 (≈ 11100 µM) | ≥ 592
6 | CC(=O)O[C@H]1[C@@H](OC(C)=O)[C@](C#N)(c2ccc3c(N)ncnn23)O[C@@H]1COC(=O)N1CCCCCCC1 [Compound 19, [(2R,3R,4R,5R)-3,4-diacetoxy-5-(4-aminopyrrolo[2,1-f][1,2,4]triazin-7-yl)-5-cyano-tetrahydrofuran-2-yl]methyl azocane-1-carboxylate] | 18000 | 31.5 | > 50 | 0.764 | 14.703 | 6.33 | 13.32 | 110 (≈ 214 µM) | ≤ 2
7 | CCOC(=O)c1cccn1C(=O)OC[C@H]1O[C@@](C#N)(c2ccc3c(N)ncnn23)[C@H](OC(C)=O)[C@@H]1OC(C)=O [Compound 20, O1-[[(2R,3R,4R,5R)-3,4-diacetoxy-5-(4-aminopyrrolo[2,1-f][1,2,4]triazin-7-yl)-5-cyano-tetrahydrofuran-2-yl]methyl]O2-ethyl pyrrole-1,2-dicarboxylate] | 731 | 4.28 | > 50 | 0.627 | 67.544 | 3.16 | 9.63 | 10 (≈ 18.5 µM) | ≤ 2
